Molecules are shown by their SMILES.

The subject of the data set is RAW264.7. As to the kind of experiment: Cytotoxicity activity mouse RAW264.7 cells assessed as effect on cell viability at 25 uM incubated for 24 hrs by MTT assay. To be noted: raw264.7, 24 h. Format: toxicity, cell-based. For orientation: Formazan colour is commonly taken as a measure of viable cells.

`COc1ccc([C@@H]2OC[C@H]3[C@@H]2CO[C@@H]3c2ccc(O[C@H]3O[C@H](COC(=O)c4cn(-c5ccc(F)cc5)nn4)[C@@H](O)[C@H](O)[C@H]3O)c(OC)c2)cc1OC`: the Activity entry is listed as “Non-Toxic”.
With `COc1ccc([C@@H]2OC[C@H]3[C@@H]2CO[C@@H]3c2ccc(O[C@H]3O[C@H](COC(=O)[C@H](CC(C)C)NC(=O)OC(C)(C)C)[C@@H](O)[C@H](O)[C@H]3O)c(OC)c2)cc1OC`, the Activity entry is “Non-Toxic”.
For `COc1ccc([C@@H]2OC[C@H]3[C@@H]2CO[C@@H]3c2ccc(O[C@H]3O[C@H](COC(=O)/C=C/c4ccccc4)[C@@H](O)[C@H](O)[C@H]3O)c(OC)c2)cc1OC`, the Activity result is given as “Non-Toxic”.
For `COc1cccc(C(=O)OC[C@H]2O[C@H](Oc3ccc([C@H]4OC[C@H]5[C@@H]4CO[C@H]5c4ccc(OC)c(OC)c4)cc3OC)[C@H](O)[C@@H](O)[C@@H]2O)c1`, the Activity entry is reported as “Non-Toxic”.
As for `COc1ccc(/C=C/C(=O)OC[C@H]2O[C@H](Oc3ccc([C@H]4OC[C@H]5[C@@H]4CO[C@H]5c4ccc(OC)c(OC)c4)cc3OC)[C@H](O)[C@@H](O)[C@@H]2O)cc1`, the Activity result is reported as “Non-Toxic”.
For `COc1ccc([C@@H]2OC[C@H]3[C@@H]2CO[C@@H]3c2ccc(O[C@H]3O[C@H](COC(=O)[C@H](CCSC)NC(=O)OC(C)(C)C)[C@@H](O)[C@H](O)[C@H]3O)c(OC)c2)cc1OC`, the Activity result is recorded as “Non-Toxic”.
Next, `COc1ccc([C@H]2OC[C@@H]3[C@H]2CO[C@@H]3c2ccc(O[C@@H]3O[C@@H](COC(=O)c4cc5ccccc5cn4)[C@H](O)[C@@H](O)[C@@H]3O)c(OC)c2)cc1OC` (stereo in doubt): “Non-Toxic”.
The value for `COc1ccc([C@H]2OC[C@@H]3[C@H]2CO[C@@H]3c2ccc(O[C@@H]3O[C@@H](COC(=O)c4cccc5ncccc45)[C@H](O)[C@@H](O)[C@@H]3O)c(OC)c2)cc1OC` (stereo in doubt) was “Non-Toxic”.

These data come from ChEMBL document CHEMBL5512620, “Design and synthesis of forsythin derivatives as anti-inflammatory agents for acute lung injury” (Eur J Med Chem, 2024).
